Measurements published in PubChem BioAssay (NCI).
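Method: 48-hour compound exposure of cells in 96-well plates, five concentrations, linear interpolation of endpoints. Here, GI50 denotes the concentration required for 50% inhibition of growth. TGI: total growth inhibition.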

Tests used:
Experiment in all cases: NCI anticancer screen, dose series, 48 h
OVCAR-5 ovarian = tested on: OVCAR-5 ovarian
CCRF-CEM leukemia = tested on: CCRF-CEM leukemia
MCF7 breast = tested on: MCF7 breast
NCI-H23 lung = tested on: NCI-H23 lung
HS 578T breast = tested on: HS 578T breast
LOX IMVI melanoma = tested on: LOX IMVI melanoma
MDA-MB-435 = tested on: MDA-MB-435
IGROV1 ovarian = tested on: IGROV1 ovarian
SF-539 CNS = tested on: SF-539 CNS
TK-10 renal = tested on: TK-10 renal
COLO 205 colon = tested on: COLO 205 colon
CAKI-1 renal = tested on: CAKI-1 renal
SK-MEL-2 melanoma = tested on: SK-MEL-2 melanoma
HCC-2998 colon = tested on: HCC-2998 colon
SW-620 colon = tested on: SW-620 colon
OVCAR-4 ovarian = tested on: OVCAR-4 ovarian
SR leukemia = tested on: SR leukemia
SK-MEL-5 melanoma = tested on: SK-MEL-5 melanoma
SK-MEL-28 melanoma = tested on: SK-MEL-28 melanoma
SF-268 CNS = tested on: SF-268 CNS
NCI-H226 lung = tested on: NCI-H226 lung
K-562 leukemia = tested on: K-562 leukemia
UO-31 renal = tested on: UO-31 renal
A498 renal = tested on: A498 renal
M14 melanoma = tested on: M14 melanoma
MALME-3M melanoma = tested on: MALME-3M melanoma
HCT-116 colon = tested on: HCT-116 colon
HL-60(TB) leukemia = tested on: HL-60(TB) leukemia
EKVX NSCLC = tested on: EKVX NSCLC
ACHN renal = tested on: ACHN renal
UACC-62 melanoma = tested on: UACC-62 melanoma
SNB-19 CNS = tested on: SNB-19 CNS
SF-295 CNS = tested on: SF-295 CNS
HT29 colon = tested on: HT29 colon
OVCAR-3 ovarian = tested on: OVCAR-3 ovarian
PC-3 prostate = tested on: PC-3 prostate
MOLT-4 leukemia = tested on: MOLT-4 leukemia
NCI/ADR-RES ovarian = tested on: NCI/ADR-RES ovarian
MDA-MB-231 breast = tested on: MDA-MB-231 breast
HCT-15 colon = tested on: HCT-15 colon
NCI-H460 lung = tested on: NCI-H460 lung
SNB-75 CNS = tested on: SNB-75 CNS
DU-145 prostate = tested on: DU-145 prostate
KM12 colon = tested on: KM12 colon
NCI-H522 lung = tested on: NCI-H522 lung
SN12C renal = tested on: SN12C renal
RPMI-8226 leukemia = tested on: RPMI-8226 leukemia
U251 CNS = tested on: U251 CNS
T-47D breast = tested on: T-47D breast
HOP-62 NSCLC = tested on: HOP-62 NSCLC
OVCAR-8 ovarian = tested on: OVCAR-8 ovarian
SK-OV-3 ovarian = tested on: SK-OV-3 ovarian
BT-549 breast = tested on: BT-549 breast
A549 NSCLC = tested on: A549 NSCLC
786-0 renal = tested on: 786-0 renal

With `COC(=O)[C@@H](C)C[C@H](Cc1ccccc1)NC(=O)c1csc([C@@H](C[C@H](C(C)C)N(C)C(=O)[C@@H](NC(=O)CN(C)C)C2CC2)OC(C)=O)n1` the GI50 (OVCAR-5 ovarian) was 838 nM, the TGI (OVCAR-5 ovarian) was > 16500 nM and the GI50 (CCRF-CEM leukemia) was 15.4 nM. The TGI (CCRF-CEM leukemia) was > 3280 nM, the GI50 (MCF7 breast) was 2.58 nM and the TGI (MCF7 breast) was > 16500 nM. The GI50 (NCI-H23 lung) was 63.5 nM, the TGI (NCI-H23 lung) was > 16500 nM and the GI50 (HS 578T breast) was 26.3 nM. The TGI (HS 578T breast) was > 16500 nM, the GI50 (LOX IMVI melanoma) was 30.1 nM and the TGI (LOX IMVI melanoma) was > 16500 nM. The GI50 (MDA-MB-435) was 1.92 nM, the TGI (MDA-MB-435) was < 15.3 nM and the GI50 (IGROV1 ovarian) was 24.5 nM. The TGI (IGROV1 ovarian) was > 16500 nM, the GI50 (SF-539 CNS) was 22 nM and the TGI (SF-539 CNS) was 92.5 nM. For the same molecule, the GI50 (TK-10 renal) was 659 nM, the TGI (TK-10 renal) was > 16500 nM and the GI50 (COLO 205 colon) was 23.1 nM. For the same molecule, the TGI (COLO 205 colon) was 499 nM, the GI50 (CAKI-1 renal) was 1300 nM and the TGI (CAKI-1 renal) was > 16500 nM. The GI50 (SK-MEL-2 melanoma) was 7.01 nM, the TGI (SK-MEL-2 melanoma) was 149 nM and the GI50 (HCC-2998 colon) was 57.3 nM. For the same molecule, the TGI (HCC-2998 colon) was > 16500 nM, the GI50 (SW-620 colon) was 13.7 nM and the TGI (SW-620 colon) was > 16500 nM. For the same molecule, the GI50 (OVCAR-4 ovarian) was 1160 nM, the TGI (OVCAR-4 ovarian) was > 16500 nM and the GI50 (SR leukemia) was 1.65 nM. For the same molecule, the TGI (SR leukemia) was > 16500 nM, the GI50 (SK-MEL-5 melanoma) was 12.2 nM and the TGI (SK-MEL-5 melanoma) was 434 nM. For the same molecule, the GI50 (SK-MEL-28 melanoma) was 10200 nM, the TGI (SK-MEL-28 melanoma) was > 16500 nM and the GI50 (SF-268 CNS) was 37.3 nM. The TGI (SF-268 CNS) was > 16500 nM, the GI50 (NCI-H226 lung) was 554 nM and the TGI (NCI-H226 lung) was > 13200 nM. For the same molecule, the GI50 (K-562 leukemia) was 2.99 nM, the TGI (K-562 leukemia) was > 16500 nM and the GI50 (UO-31 renal) was 478 nM. The TGI (UO-31 renal) was > 16500 nM, the GI50 (A498 renal) was 304 nM and the TGI (A498 renal) was > 7500 nM. The GI50 (M14 melanoma) was 18.5 nM, the GI50 (MALME-3M melanoma) was 36.5 nM and the TGI (MALME-3M melanoma) was > 16500 nM. The GI50 (HCT-116 colon) was 15.4 nM, the TGI (HCT-116 colon) was > 5860 nM and the GI50 (HL-60(TB) leukemia) was 2.72 nM. For the same molecule, the TGI (HL-60(TB) leukemia) was 10.6 nM, the GI50 (EKVX NSCLC) was 208 nM and the TGI (EKVX NSCLC) was > 16500 nM. For the same molecule, the GI50 (ACHN renal) was 93.8 nM, the TGI (ACHN renal) was > 16500 nM and the GI50 (UACC-62 melanoma) was 11.2 nM. The TGI (UACC-62 melanoma) was > 16500 nM, the GI50 (SNB-19 CNS) was 86.2 nM and the TGI (SNB-19 CNS) was > 16500 nM. The GI50 (SF-295 CNS) was 16.8 nM, the TGI (SF-295 CNS) was 329 nM and the GI50 (HT29 colon) was 13 nM. For the same molecule, the GI50 (OVCAR-3 ovarian) was 3.09 nM, the GI50 (PC-3 prostate) was 26.7 nM and the TGI (PC-3 prostate) was > 16500 nM. The GI50 (MOLT-4 leukemia) was 50.1 nM, the TGI (MOLT-4 leukemia) was > 16500 nM and the GI50 (NCI/ADR-RES ovarian) was 13400 nM. For the same molecule, the TGI (NCI/ADR-RES ovarian) was > 16500 nM, the GI50 (MDA-MB-231 breast) was 85.8 nM and the TGI (MDA-MB-231 breast) was > 16500 nM. For the same molecule, the GI50 (HCT-15 colon) was 135 nM, the TGI (HCT-15 colon) was > 16500 nM and the GI50 (NCI-H460 lung) was 29.1 nM. The TGI (NCI-H460 lung) was > 16500 nM, the GI50 (SNB-75 CNS) was 6.96 nM and the TGI (SNB-75 CNS) was > 16500 nM. For the same molecule, the GI50 (DU-145 prostate) was 16.9 nM, the GI50 (KM12 colon) was 21.5 nM and the TGI (KM12 colon) was > 10500 nM. It also gave a GI50 (NCI-H522 lung) of 3.3 nM, a TGI (NCI-H522 lung) of 260 nM and a GI50 (SN12C renal) of 64.7 nM. For the same molecule, the TGI (SN12C renal) was > 16500 nM, the GI50 (RPMI-8226 leukemia) was 5.76 nM and the TGI (RPMI-8226 leukemia) was > 7960 nM. For the same molecule, the GI50 (U251 CNS) was 55 nM, the TGI (U251 CNS) was > 16500 nM and the GI50 (T-47D breast) was > 16500 nM. The TGI (T-47D breast) was > 16500 nM, the GI50 (HOP-62 NSCLC) was 58.5 nM and the TGI (HOP-62 NSCLC) was > 16500 nM. For the same molecule, the GI50 (OVCAR-8 ovarian) was 49.5 nM, the TGI (OVCAR-8 ovarian) was > 16500 nM and the GI50 (SK-OV-3 ovarian) was 434 nM. The TGI (SK-OV-3 ovarian) was > 16500 nM, the GI50 (BT-549 breast) was 12.7 nM and the TGI (BT-549 breast) was 857 nM. For the same molecule, the GI50 (A549 NSCLC) was 240 nM, the TGI (A549 NSCLC) was > 16500 nM and the GI50 (786-0 renal) was 38.2 nM. For the same molecule, the TGI (786-0 renal) was > 16500 nM.
